Source: patent publication US8133847B2, “Pyrido[2,3-B]pyrazine derivatives useful as herbicidal compounds” (Syngenta Limited, priority 2006, dated 2012)

Key:
Test in all cases: Example B1 herbicidal action, post-emergence, 96-cell seed trays, climatic chamber
Format in all cases: in vivo
Stellaria media (STEME) = details: Application post-emergence, 1000 mg/l spray equivalent to 1000 g/ha, evaluated after 9 days (100=total damage to plant, 0=no damage to plant)
How it was run: (§1)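 Plants at 8–9 days post-sowing (23/17 °C, 13 h light, 50–60% humidity) sprayed post-emergence with 1000 mg/l active ingredient in 10% DMSO, equivalent to 1000 g/ha. Grown on at 24/19 °C, watered twice daily; damage scored after 9 days (0 = none, 100 = total).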

[1] = system: Amaranthus retroflexus (AMARE); details: Application post-emergence, 1000 mg/l spray equivalent to 1000 g/ha, evaluated after 9 days
How it was run: as §1

Solanum nigrum (SOLNI) = details: Application post-emergence, 1000 mg/l spray equivalent to 1000 g/ha, evaluated after 9 days (100=total damage to plant, 0=no damage to plant)
How it was run: as §1

[2] = system: Nasturtium officinale (NAAOF); design: scale not given here; details: Application post-emergence, 1000 mg/l spray equivalent to 1000 g/ha, evaluated after 9 days (100=total damage to plant, 0=no damage to plant)
How it was run: as §1

SMILES	damage to plant, Stellaria media (STEME) (Stellaria media (STEME))	damage to plant, Amaranthus retroflexus (AMARE) [1]	damage to plant, Solanum nigrum (SOLNI) (Solanum nigrum (SOLNI))	damage to plant, Nasturtium officinale (NAAOF) [2]
Cc1cc(C(=O)Oc2c(-c3c(F)ccc(F)c3Cl)c(=O)n(C)c3nccnc23)c(C)o1 [Compound C102]	7	4	7	7
CCn1c(=O)c(-c2c(C)cc(C)cc2C)c(OC(=O)C(C)C)c2nccnc21 [Compound C103]	7	4	7	6
CCn1c(=O)c(-c2cc(C(F)(F)F)cc(C(F)(F)F)c2)c(OC(C)=O)c2nccnc21 [Compound C104]	0	2	0	4
Cn1c(=O)c(-c2c(F)ccc(F)c2Cl)c(OC(=O)C(C)(C)C)c2nccnc21 [Compound C105]	8	5	5	6
Cn1c(=O)c(-c2c(Cl)ccc(Cl)c2Cl)c(OC(=O)C(C)(C)C)c2nccnc21 [Compound C108]	5	6	3	5
Cn1c(=O)c(-c2ccccc2C(F)(F)F)c(OC(=O)C(C)(C)C)c2nccnc21 [Compound C109]	0	3	6	4
CC(C)C(=O)Oc1c(-c2ccccc2C(F)(F)F)c(=O)n(C)c2nccnc12 [Compound C110]	7	7	6	6
CCn1c(=O)c(-c2c(F)ccc(F)c2Cl)c(OC(=O)CC(C)(C)C)c2nccnc21 [Compound C112]	7	6	7	5
C=CCC(=O)Oc1c(-c2c(F)ccc(F)c2Cl)c(=O)n(CC=C)c2nccnc12 [Compound C113]	8	7	6	6
Cc1ccc(Cl)c(-c2c(OC(=O)C(C)C)c3nccnc3n(C)c2=O)c1F [Compound C114]	6	2	2	5
CCn1c(=O)c(-c2c(Cl)ccc(C)c2F)c(OC(=O)C(C)C)c2nccnc21 [Compound C115]	8	4	4	7
Cc1ccc(Cl)c(-c2c(OC(=O)C(C)(C)C)c3nccnc3n(C)c2=O)c1F [Compound C116]	4	0	4	2
CCn1c(=O)c(-c2c(Cl)ccc(C)c2F)c(OC(=O)C(C)(C)C)c2nccnc21 [Compound C117]	1	0	5	0
CC(C)C(=O)Oc1c(-c2cc(C(F)(F)F)ccc2Cl)c(=O)n(C)c2nccnc12 [Compound C118]	8	6	6	7
CCn1c(=O)c(-c2cc(C(F)(F)F)ccc2Cl)c(OC(=O)C(C)C)c2nccnc21 [Compound C119]	8	7	6	7
Cn1c(=O)c(-c2c(Cl)cc(C(F)(F)F)cc2Cl)c(OC(=O)C(C)(C)C)c2nccnc21 [Compound C120]	7	5	7	6
Cn1c(=O)c(-c2cc(C(F)(F)F)ccc2Cl)c(OC(=O)C(C)(C)C)c2nccnc21 [Compound C121]	7	5	7	6
CCn1c(=O)c(-c2cc(C(F)(F)F)ccc2Cl)c(OC(=O)C(C)(C)C)c2nccnc21 [Compound C122]	7	6	6	4
